Values of other authors as cited in patent publication US8791078B2, “Cell protection in dialysis patients by administration of a creatine compound” (Crearene Ltd., priority 2009, dated 2014).

How the values were obtained:
[1] = system: muscle cramps associated with haemodialysis; set-up: dose or concentration left out as unconfirmed; conditions: oral, before each dialysis session for 4 weeks
[2] = target: T1, creatine Transporter Protein (CrT) (Homo sapiens, UniProt P48029); conditions: CrT in the plasma membrane
T1 sequence (P48029 1-635): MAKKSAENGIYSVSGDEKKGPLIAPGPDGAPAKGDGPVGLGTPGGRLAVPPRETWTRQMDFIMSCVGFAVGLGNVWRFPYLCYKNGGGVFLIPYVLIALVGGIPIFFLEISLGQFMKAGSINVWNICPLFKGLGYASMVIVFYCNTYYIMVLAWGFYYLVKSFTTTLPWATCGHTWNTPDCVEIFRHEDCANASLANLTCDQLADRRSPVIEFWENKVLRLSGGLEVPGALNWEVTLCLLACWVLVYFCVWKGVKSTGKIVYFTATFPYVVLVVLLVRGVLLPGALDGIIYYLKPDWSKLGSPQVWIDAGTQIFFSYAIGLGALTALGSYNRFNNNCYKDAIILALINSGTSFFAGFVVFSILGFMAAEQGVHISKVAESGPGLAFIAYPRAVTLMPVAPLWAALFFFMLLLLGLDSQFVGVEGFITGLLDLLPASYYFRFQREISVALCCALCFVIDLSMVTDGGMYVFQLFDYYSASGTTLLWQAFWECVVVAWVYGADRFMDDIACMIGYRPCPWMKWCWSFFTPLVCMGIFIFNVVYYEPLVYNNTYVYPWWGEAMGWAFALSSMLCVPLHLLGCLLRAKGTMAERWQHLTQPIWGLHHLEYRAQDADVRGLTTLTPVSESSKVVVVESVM

[3] = system: total plasma homocysteine; conditions: chronic haemodialysis patients, oral creatine (2 giday)
[4] = system: serum levels of homocysteine; conditions: creatine supplementation

| SMILES | effect on muscle cramps associated with haemodialysis [1] | Km [2] | effect on total plasma homocysteine [3] | effect on serum levels of homocysteine [4] |
| --- | --- | --- | --- | --- |
| CN(CC(=O)O)C(=N)N.O [creatine monohydrate] | alleviates muscle cramps associated with haemodialysis | – | – | – |
| CN(CC(=O)O)C(=N)N [creatine] | – | 25 to 30 µM | does not decrease total plasma homocysteine | reduce serum levels of homocysteine |
